{"source": "patent US11180455B2", "about": "“Compounds for the treatment of pain” (priority 2018, dated 2021)", "key": {"Male Sprague-Dawley rats [1]": {"test_system": "Male Sprague-Dawley rats", "assay_type": "in vivo", "conditions": "rat"}, "Male Sprague-Dawley rats [2]": {"test_system": "Male Sprague-Dawley rats", "conditions": "maximum pCO2 within 2 hours of administration, rat, subcutaneous"}, "human μ opioid receptor": {"molecular_target": "human μ opioid receptor (Homo sapiens (Human), UniProt P35372)", "assay": "Alternate functional activity ([35S]GTPγS binding, SPA) assay", "assay_type": "biochemical", "conditions": "alternate [35S]GTPγS binding assay (SPA beads), CHO cell membranes expressing human μ opioid receptor", "experimental": "The [^35S]GTPγS assay measures the functional properties of a compound by quantifying the level of G-protein activation following agonist binding in studies using stably transfected cells, and is considered to be a measure of the efficacy of a compound. Membranes from CHO (Chinese Hamster Ovary) cells that stably expressed one type of the cloned human opioid receptor human were used in the experiments. The assay buffer consisted of 50 mM Tris-HCl, pH 7.4, 3 mM MgCl2, 0.2 mM EGTA, 5 μM GDP, and 100 mM NaCl. CHO cell membranes stably expressing the human p opioid receptor were pre-incubated with scintillation proximity assay beads from PerkinElmer® (WGA PVT SPA) for 30 minutes, at 8 µg membrane and 350 µg beads in a volume of 0.1 mL per reaction. In a final volume of 0.2 mL, 11 different concentrations of each test compound were incubated with the membrane-SPA bead mixture and a final concentration of 0.020 nM [35S]GTPγS for 1.5 hours with gentle shaking. Reactions were then incubated for 5 hours. Data are the mean EC50 values±S.E.M. EC50 values (nM) for compounds 12, 16, 19, 20, 149, 151, 152, 157, 160, 161, 164-169, 172, 173, 180-197, and 199-207 are shown in Table 1."}}, "note": "Read-outs that look alike come from different tables or passages of the source.", "data": [{"smiles": "CO[C@@]12CC[C@@]3(C[C@@H]1[C@](C)(O)C(C)(C)C)[C@H]1Cc4ccc(O)c5c4[C@@]3(CCN1CC1CC1)[C@H]2O5", "note": "[Buprenorphine, buprenorphine, reference compound]", "values": [{"measurement": "MEMO SC CFA", "setting": "Male Sprague-Dawley rats [1]; in vivo", "value": 0.1, "unit": "mg/kg"}]}, {"smiles": "COC1(c2cccc(C(N)=O)c2)C2CCCC1CN(C1CC3(COC3)C1)C2.O=C(O)C[C@H](O)C(=O)O", "note": "[Compound 133, 3-((1R,5S,9r)-9-methoxy-3-(2-oxaspiro[3.3]heptan-6-yl)-3-azabicyclo[3.3.1]nonan-9-yl)benzamide (S)-2-hydroxysuccinate]", "values": [{"measurement": "<60 mmHg @ 10X CFA MEMD", "setting": "Male Sprague-Dawley rats [2]", "value": "+ (resulted in a maximum pCO2 value of less than 60 mmHg within 2 hours of administration)"}]}, {"smiles": "CO[C@@]1(c2ccnc(C(N)=O)c2)[C@@H]2CCC[C@H]1CN(Cc1ncc(C)[nH]1)C2.Cl", "note": "[Compound 153, 4-((1R,5S,9r)-9-methoxy-3-((5-methyl-1H-imidazol-2-yl)methyl)-3-azabicyclo[3.3.1]nonan-9-yl)picolinamide Hydrochloride]", "values": [{"measurement": "MEMO SC CFA", "setting": "Male Sprague-Dawley rats [1]; minimum dose at which maximal reversal (MEMD) of weight bearing was achieved, subcutaneous administration", "value": 1, "unit": "mg/kg"}]}, {"smiles": "CCOC1(c2cccc(C(N)=O)c2)C2CCCC1CNC2", "note": "[Compound 160, 3-((1R,5S,9r)-9-ethoxy-3-azabicyclo[3.3.1]nonan-9-yl)benzamide]", "values": [{"measurement": "<60 mmHg @ 10X CFA MEMD", "setting": "Male Sprague-Dawley rats [2]", "value": "+ (resulted in a maximum pCO2 value of less than 60 mmHg within 2 hours of administration)"}, {"measurement": "<60 mmHg @ 100X CFA MEMD", "setting": "Male Sprague-Dawley rats [2]; 100X CFA MEMD dose", "value": "+ (resulted in a maximum pCO2 value of less than 60 mmHg within 2 hours of administration)"}]}, {"smiles": "CCOC1(c2cc(C(N)=O)ccc2F)C2CCCC1CN(C)C2", "note": "(stereo not drawn) [Compound 194]", "values": [{"measurement": "EC50", "setting": "human μ opioid receptor", "value": "10 to 75", "unit": "nM"}]}]}
